Structures are written as SMILES.

This test concerns the target T1, CCDC6-RET (Homo sapiens, UniProt P07949+Q16204+Q96SW2).
T1 construct: CCDC6 (natural N-terminal fusion partner, UniProt Q16204); endogenous in cells; host or cells: TPC-1 (parental, papillary thyroid carcinoma)
Nature of the test: Cellular RET degradation, AlphaLISA, TPC-1 cell line. It is filed as cell-based. To be noted: for Dmax: TPC1, human, 24 h, read-out: Cell Density TPC-1/CCDC6-RET Ymax %; for DC50: read-out: Cell Density TPC-1/CCDC6-RET DC50, half-maximal degradation concentration, TPC-1 (CCDC6-RET), 24 hrs. On the procedure:
Cellular RET degradation compound potency was determined using the bead-based luminescent amplification assay-AlphaLISA Surefire Ultra Detection Kit (Perkin-Elmer). The CCDC6-RET fusion expressing papillary thyroid carcinoma (TPC-1) cell line was selected for screening of potential degraders: Parental (TPC-1/CCDC6-RET). Cells were plated in 384 well culture plates (Greiner Bio-One) at 10,000 cells/well in 50 ul/well DMEM (Fisher Scientific) with 2% FBS serum (Gibco). […] Low normalization wells were media only and high normalization wells were cells treated with DMSO only. Treated cell plates were placed in an incubator at 37 °C and 5% CO2 for 24 hrs. At 24 hrs, cell media was removed by a FELIX automated liquid hander (Analytik Jena) and 25 ul of cell lysis buffer (provided in AlphaLisa kit) was added to each well. […] cell lysate were transferred into a 384-well microplate (Perkin Elmer) before addition of 2.5 ul AlphaLISA Acceptor Bead mix. The plates were sealed and kept at room temperature for 1 hr before addition of donor bead mixture. Donor bead addition was performed in the dark and incubated for >1 hr before AlphaLISA luminescence was measured on an Envision plate reader with an Alphascreen aperture at RT (excitation 680 nm, emission 615 nm). RET protein abundance (and therefore degradation) directly corresponds to luminescence intensity.
Intensities were normalized relative to the average values from 16 wells containing media alone (blank-low) and 16 wells containing cells +DMSO (high). % Degradation for each well was determined using the standard equation, where
DC50 (IC50) values for each compound tested are calculated by analyzing plots of % degradation versus compound concentration, and fitting to the standard 4-parameter logistic curve where,
DC50 values are calculated according to the relationship,
Compound replicates were performed in independent assays. Maximum degradation (YMax) was defined as the maximal % degradation value from the 4-parameter logistic equation, as previously described.
For orientation: Alpha assays give light when donor and acceptor beads are brought close together.

T1 sequence (Q16204+P07949 fused): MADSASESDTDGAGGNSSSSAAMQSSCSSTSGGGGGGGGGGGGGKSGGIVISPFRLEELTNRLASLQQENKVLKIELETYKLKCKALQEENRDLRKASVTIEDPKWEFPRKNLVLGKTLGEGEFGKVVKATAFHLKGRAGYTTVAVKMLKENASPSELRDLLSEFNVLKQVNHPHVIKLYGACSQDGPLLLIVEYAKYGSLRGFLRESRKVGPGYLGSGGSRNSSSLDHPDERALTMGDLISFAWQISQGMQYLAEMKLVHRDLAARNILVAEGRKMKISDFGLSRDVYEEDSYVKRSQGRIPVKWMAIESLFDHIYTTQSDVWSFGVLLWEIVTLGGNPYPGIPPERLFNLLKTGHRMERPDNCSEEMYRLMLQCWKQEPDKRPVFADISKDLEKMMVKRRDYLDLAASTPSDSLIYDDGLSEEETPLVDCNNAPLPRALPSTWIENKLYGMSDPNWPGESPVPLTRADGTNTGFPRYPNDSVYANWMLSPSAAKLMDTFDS
T1 sequence (Q96SW2 whole entry, the tested form may be a part): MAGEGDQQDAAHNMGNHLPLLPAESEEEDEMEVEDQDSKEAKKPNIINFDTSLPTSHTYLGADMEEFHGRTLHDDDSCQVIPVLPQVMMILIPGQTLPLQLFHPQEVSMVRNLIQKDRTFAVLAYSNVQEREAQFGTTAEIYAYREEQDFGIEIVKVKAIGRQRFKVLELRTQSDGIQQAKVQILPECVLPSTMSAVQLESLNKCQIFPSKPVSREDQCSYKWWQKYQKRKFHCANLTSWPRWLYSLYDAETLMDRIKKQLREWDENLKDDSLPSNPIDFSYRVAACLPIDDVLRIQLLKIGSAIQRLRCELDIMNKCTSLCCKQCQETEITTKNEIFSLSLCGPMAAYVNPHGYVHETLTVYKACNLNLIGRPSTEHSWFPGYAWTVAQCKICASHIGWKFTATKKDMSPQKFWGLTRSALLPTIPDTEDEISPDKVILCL
T1 sequence (Q16531 whole entry partner, the tested form may be a part): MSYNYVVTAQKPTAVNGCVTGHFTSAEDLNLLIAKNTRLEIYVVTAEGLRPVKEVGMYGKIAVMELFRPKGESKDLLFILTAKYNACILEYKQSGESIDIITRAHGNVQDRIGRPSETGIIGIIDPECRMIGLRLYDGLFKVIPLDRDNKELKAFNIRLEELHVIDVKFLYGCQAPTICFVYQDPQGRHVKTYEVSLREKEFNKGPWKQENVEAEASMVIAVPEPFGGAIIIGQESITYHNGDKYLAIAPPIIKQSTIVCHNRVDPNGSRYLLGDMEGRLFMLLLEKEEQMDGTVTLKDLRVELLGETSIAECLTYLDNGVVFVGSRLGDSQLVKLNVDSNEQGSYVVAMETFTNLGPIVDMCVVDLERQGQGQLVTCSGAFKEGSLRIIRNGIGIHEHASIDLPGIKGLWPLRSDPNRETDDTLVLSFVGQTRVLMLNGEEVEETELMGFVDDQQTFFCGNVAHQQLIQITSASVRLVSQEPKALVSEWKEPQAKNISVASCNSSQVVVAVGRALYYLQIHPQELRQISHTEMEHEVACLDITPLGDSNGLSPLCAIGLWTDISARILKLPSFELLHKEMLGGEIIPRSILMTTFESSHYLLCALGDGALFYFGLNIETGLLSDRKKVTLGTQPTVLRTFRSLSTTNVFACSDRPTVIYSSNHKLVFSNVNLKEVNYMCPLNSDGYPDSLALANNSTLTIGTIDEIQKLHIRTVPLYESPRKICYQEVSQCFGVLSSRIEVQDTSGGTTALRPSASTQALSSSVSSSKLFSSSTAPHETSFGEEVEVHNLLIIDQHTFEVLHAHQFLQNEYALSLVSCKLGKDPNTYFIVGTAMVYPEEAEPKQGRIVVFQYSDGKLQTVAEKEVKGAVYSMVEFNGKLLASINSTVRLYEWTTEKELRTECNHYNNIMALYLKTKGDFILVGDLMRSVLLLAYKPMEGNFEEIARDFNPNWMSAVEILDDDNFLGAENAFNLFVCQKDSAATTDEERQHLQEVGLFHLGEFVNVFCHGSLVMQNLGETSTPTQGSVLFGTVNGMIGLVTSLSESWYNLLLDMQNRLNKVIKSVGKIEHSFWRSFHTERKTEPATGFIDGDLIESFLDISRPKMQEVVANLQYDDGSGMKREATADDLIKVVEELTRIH

With `CCOc1cc(-c2ccc(N3CCC(CN(C(=O)CCCCCCN4CCN(c5ccc6c(c5)C(=O)N(C5CCC(=O)NC5=O)C6)CC4)C(C)C)(NC(=O)c4cc(F)ccc4F)CC3)nc2)c2c(C#N)cnn2c1` (stereo not shown) [Example 169, N-[1-(5-{3-cyano-6-ethoxypyrazolo[1,5-a]pyridin-4-yl}pyridin-2-yl)-4-[(7-{4-[2-(2,6-dioxopiperidin-3-yl)-3-oxo-2,3-dihydro-1H-isoindol-5-yl]piperazin-1-yl}-N-(propan-2-yl)heptanamido)methyl]piperidin-4-yl]-2,5-difluorobenzamide], the Dmax lay within 60 to 90% and the DC50 lay in the range of 10 to 100 nM.

In the case of `CCOc1cc(-c2ccc(N3CCC(CN4CCN(C(=O)CCCCCCNc5cccc(NC6CCC(=O)NC6=O)c5)CC4)(NC(=O)c4cc(F)ccc4F)CC3)nc2)c2c(C#N)cnn2c1` (stereo not shown) [Example 22, N-[1-(5-{3-cyano-6-ethoxypyrazolo[1,5-a]pyridin-4-yl}pyridin-2-yl)-4-({4-[7-({3-[(2,6-dioxopiperidin-3-yl)amino]phenyl}amino)heptanoyl]piperazin-1-yl}methyl)piperidin-4-yl]-2,5-difluorobenzamide], the Dmax was 60 to 90% and the DC50 is 10 to 100 nM.

In the case of `CCOc1cc(-c2ccc(N3CCC(CN4CCC5(CCC(CC(=O)N6CCN(c7ccc8c(c7)CN(C7CCC(=O)NC7=O)C8=O)CC6)CC5)CC4)(NC(=O)c4cc(F)ccc4F)CC3)nc2)c2c(C#N)cnn2c1` (stereo not shown) [Example 124, N-[1-(5-{3-cyano-6-ethoxypyrazolo[1,5-a]pyridin-4-yl}pyridin-2-yl)-4-{[9-(2-{4-[2-(2,6-dioxopiperidin-3-yl)-1-oxo-2,3-dihydro-1H-isoindol-5-yl]piperazin-1-yl}-2-oxoethyl)-3-azaspiro[5.5]undecan-3-yl]methyl}piperidin-4-yl]-2,5-difluorobenzamide], the Dmax was greater than 90% and the DC50 is less than 2 nM.

As to `CCOc1cc(-c2ccc(N3CCC(CN4CC5(C4)CN(C(=O)CCN4CCC(c6ccc7c(c6)CN(C6CCC(=O)NC6=O)C7=O)CC4)C5)(NC(=O)c4cc(F)ccc4F)CC3)nc2)c2c(C#N)cnn2c1` (stereo not shown) [Example 89, N-[1-(5-{3-cyano-6-ethoxypyrazolo[1,5-a]pyridin-4-yl}pyridin-2-yl)-4-{[6-(3-{4-[2-(2,6-dioxopiperidin-3-yl)-1-oxo-2,3-dihydro-1H-isoindol-5-yl]piperidin-1-yl}propanoyl)-2,6-diazaspiro[3.3]heptan-2-yl]methyl}piperidin-4-yl]-2,5-difluorobenzamide], the Dmax is greater than 90% and the DC50 lay within 10 to 100 nM.

With `CCOc1cc(-c2ccc(N3CCC(Cc4ccccc4)(NC(=O)CN4CCC(CN5CCC(c6ccc7c(c6)C(=O)N(C6CCC(=O)NC6=O)C7)CC5)CC4)CC3)nc2)c2c(C#N)cnn2c1` (stereo not shown) [Example 57, N-[4-benzyl-1-[5-(3-cyano-6-ethoxy-pyrazolo[1,5-a]pyridin-4-yl)-2-pyridyl]-4-piperidyl]-2-[4-[[4-[2-(2,6-dioxo-3-piperidyl)-3-oxo-isoindolin-5-yl]-1-piperidyl]methyl]-1-piperidyl]acetamide], the Dmax lay in the range of 60 to 90% and the DC50 is 100 to 2000 nM.

On to `CCOc1cc(-c2ccc(N3CCC(CN4CCN(C5CN(C(=O)c6ccc7c(N8CCC(=O)NC8=O)nn(C)c7c6)C5)CC4)(NC(=O)c4cc(F)ccc4F)CC3)nc2)c2c(C#N)cnn2c1` [Example 64, N-[1-(5-{3-cyano-6-ethoxypyrazolo[1,5-a]pyridin-4-yl}pyridin-2-yl)-4-[(4-{1-[3-(2,4-dioxo-1,3-diazinan-1-yl)-1-methyl-1H-indazole-6-carbonyl]azetidin-3-yl}piperazin-1-yl)methyl]piperidin-4-yl]-2,5-difluorobenzamide], for which the Dmax was greater than 90% and the DC50 was less than 2 nM.

With `CCOc1cc(-c2ccc(N3CCC(CN4CCN(C(=O)CCCCN5CCN(c6ccc7c(c6)C(=O)N(C6CCC(=O)NC6=O)C7)CC5)CC4)(NC(=O)c4cc(F)ccc4F)CC3)nc2)c2c(C#N)cnn2c1` (stereo not shown) [Example 13, N-(1-(5-(3-cyano-6-ethoxypyrazolo[1,5-a]pyridin-4-yl)pyridin-2-yl)-4-((4-(5-(4-(2-(2,6-dioxopiperidin-3-yl)-3-oxoisoindolin-5-yl)piperazin-1-yl)pentanoyl)piperazin-1-yl)methyl)piperidin-4-yl)-2,5-difluorobenzamide], the Dmax is greater than 90% and the DC50 was less than 2 nM.

Turning to `CCOc1cc(-c2ccc(N3CCC(CN4CCC5(CCC(CC(=O)N6CCC(c7ccc8c(c7)CN(C7CCC(=O)NC7=O)C8=O)CC6)CC5)CC4)(NC(=O)c4cc(F)ccc4F)CC3)nc2)c2c(C#N)cnn2c1` (stereo not shown) [Example 122, N-[1-(5-{3-cyano-6-ethoxypyrazolo[1,5-a]pyridin-4-yl}pyridin-2-yl)-4-{[9-(2-{4-[2-(2,6-dioxopiperidin-3-yl)-1-oxo-2,3-dihydro-1H-isoindol-5-yl]piperidin-1-yl}-2-oxoethyl)-3-azaspiro[5.5]undecan-3-yl]methyl}piperidin-4-yl]-2,5-difluorobenzamide], the Dmax was greater than 90% and the DC50 fell in the range of 2 to 10 nM.

As to `CCOc1cc(-c2ccc(N3CCC(CN4CCN(C(=O)CCN5CCN(c6ccc7c(c6)C(=O)N(C6CCC(=O)NC6=O)C7)CC5)CC4)(NC(=O)c4cc(F)ccc4F)CC3)nc2)c2c(C#N)cnn2c1` (stereo not shown) [Example 12, N-(1-(5-(3-cyano-6-ethoxypyrazolo[1,5-a]pyridin-4-yl)pyridin-2-yl)-4-((4-(3-(4-(2-(2,6-dioxopiperidin-3-yl)-3-oxoisoindolin-5-yl)piperazin-1-yl)propanoyl)piperazin-1-yl)methyl)piperidin-4-yl)-2,5-difluorobenzamide], the Dmax is greater than 90% and the DC50 was less than 2 nM.

With `CCOc1cc(-c2ccc(N3CCC(NC(=O)c4cc(F)ccc4F)(C(=O)NCCCCCCN4CCN(c5ccc6c(c5)CN(C5CCC(=O)NC5=O)C6=O)CC4)CC3)nc2)c2c(C#N)cnn2c1` (stereo not shown) [Example 155, 1-(5-{3-cyano-6-ethoxypyrazolo[1,5-a]pyridin-4-yl}pyridin-2-yl)-4-(2,5-difluorobenzamido)-N-(6-{4-[2-(2,6-dioxopiperidin-3-yl)-1-oxo-2,3-dihydro-1H-isoindol-5-yl]piperazin-1-yl}hexyl)piperidine-4-carboxamide], the Dmax lay within 60 to 90% and the DC50 is less than 2 nM.

For the compound `CCOc1cc(-c2ccc(N3CCC(CN4CCN(CCC(=O)N5CCC(c6ccc7c(c6)C(=O)N(C6CCC(=O)NC6=O)C7)CC5)CC4)(NC(=O)c4cc(F)ccc4F)CC3)nc2)c2c(C#N)cnn2c1` (stereo not shown) [Example 116, N-[1-(5-{3-cyano-6-ethoxypyrazolo[1,5-a]pyridin-4-yl}pyridin-2-yl)-4-{[4-(3-{4-[2-(2,6-dioxopiperidin-3-yl)-3-oxo-2,3-dihydro-1H-isoindol-5-yl]piperidin-1-yl}-3-oxopropyl)piperazin-1-yl]methyl}piperidin-4-yl]-2,5-difluorobenzamide], the Dmax was greater than 90% and the DC50 lay in the range of 2 to 10 nM.

For `CCOc1cc(-c2ccc(N3CCC(CN4CCN(C5CN(C(=O)COc6ccc7c(c6)CN(C6CCC(=O)NC6=O)C7=O)C5)CC4)(NC(=O)c4cc(F)ccc4F)CC3)nc2)c2c(C#N)cnn2c1` (stereo not shown) [Example 65, N-[1-(5-{3-cyano-6-ethoxypyrazolo[1,5-a]pyridin-4-yl}pyridin-2-yl)-4-({4-[1-(2-{[2-(2,6-dioxopiperidin-3-yl)-1-oxo-2,3-dihydro-1H-isoindol-5-yl]oxy}acetyl)azetidin-3-yl]piperazin-1-yl}methyl)piperidin-4-yl]-2,5-difluorobenzamide], the Dmax was 60 to 90% and the DC50 is 2 to 10 nM.

For `CCOc1cc(-c2ccc(N3CCC(CN4CCN(CCC(=O)N5CCC6(CC5)CCN(c5ccc7c(c5)CN(C5CCC(=O)NC5=O)C7=O)CC6)CC4)(NC(=O)c4cc(F)ccc4F)CC3)nc2)c2c(C#N)cnn2c1` (stereo not shown) [Example 90, N-[1-(5-{3-cyano-6-ethoxypyrazolo[1,5-a]pyridin-4-yl}pyridin-2-yl)-4-{[4-(3-{9-[2-(2,6-dioxopiperidin-3-yl)-1-oxo-2,3-dihydro-1H-isoindol-5-yl]-3,9-diazaspiro[5.5]undecan-3-yl}-3-oxopropyl)piperazin-1-yl]methyl}piperidin-4-yl]-2,5-difluorobenzamide], the Dmax was greater than 90% and the DC50 is 10 to 100 nM.

Consider `CCOc1cc(-c2ccc(N3CCC(CN4CCN(C(=O)CCCCCCCCNc5cccc(NC6CCC(=O)NC6=O)c5)CC4)(NC(=O)c4cc(F)ccc4F)CC3)nc2)c2c(C#N)cnn2c1` (stereo not shown) [Example 23, N-[1-(5-{3-cyano-6-ethoxypyrazolo[1,5-a]pyridin-4-yl}pyridin-2-yl)-4-({4-[9-({3-[(2,6-dioxopiperidin-3-yl)amino]phenyl}amino)nonanoyl]piperazin-1-yl}methyl)piperidin-4-yl]-2,5-difluorobenzamide], for which the Dmax was greater than 90% and the DC50 was in the range of 10 to 100 nM.

The values above are taken from patent US20260356830A1, “COMPOUNDS FOR MODULATING RET PROTEIN” (Bristol-Myers Squibb Company, priority 2022, published 2026).
